From patent US12129312B2, “Peptide compound, application thereof and composition containing same” (priority 2017, dated 2024) come the findings set out here.

Where two headings read alike, the source gives them in different places. Numbered stars: 1 amine (or outer) side, 2 acyl side, 3 side chain; on linkers, the order of the positions; unused ones are H or OH. Square brackets hold non-standard residues; d marks the D form. Peptide text beside a SMILES is read from it. * marks the point of attachment. Bpa = N[C@@H](Cc1ccc(C(=O)c2ccccc2)cc1)C(=O)O; Benzoyl(2,3-diOH) = O=C(c1cccc(O)c1O)*; 1Nal = N[C@@H](Cc1cccc2ccccc12)C(=O)O; 2Nal = N[C@@H](Cc1ccc2ccccc2c1)C(=O)O; dNMeY = CN[C@H](Cc1ccc(O)cc1)C(=O)O; X3 = O=C(N1Cc2ccccc2CN1[*:1])[*:2]; Tic = O=C(O)[C@@H]1Cc2ccccc2CN1; NMeL = CN[C@@H](CC(C)C)C(=O)O; X12 = O=C(Cc1cc(O)cc(O)c1)*; X9 = O=C(c1ccc(O)c(O)c1O)*; NMeS = CN[C@@H](CO)C(=O)O; Thz = O=C(O)[C@@H]1CSCN1; X8 = O=C(c1c(O)cccc1O)* Some results are limits rather than exact numbers.

The target in the assay is T1, human Chemokine like receptor 1 (Homo sapiens, UniProt Q99788).
T1 construct: host or cells: U2OS (Tango CMKLR1-bla U2OS)
T1 sequence (Q99788 1-373): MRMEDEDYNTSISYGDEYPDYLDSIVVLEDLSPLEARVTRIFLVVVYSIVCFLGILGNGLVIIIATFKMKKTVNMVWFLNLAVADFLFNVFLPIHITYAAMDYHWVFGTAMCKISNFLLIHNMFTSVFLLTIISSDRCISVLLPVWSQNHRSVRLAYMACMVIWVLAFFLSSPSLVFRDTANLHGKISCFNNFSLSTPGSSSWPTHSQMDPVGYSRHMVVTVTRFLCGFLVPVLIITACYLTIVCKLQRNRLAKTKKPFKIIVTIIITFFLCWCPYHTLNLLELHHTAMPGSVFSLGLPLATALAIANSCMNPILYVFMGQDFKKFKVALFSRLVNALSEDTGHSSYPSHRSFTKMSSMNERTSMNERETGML
As to the kind of experiment: Activation of Tango CMKLR1-bla U2OS cells (beta-lactamase FRET reporter). The class given is cell-based. On the procedure: The polypeptide sequences described above are the polypeptide sequences disclosed in the patent JP2010-229093A of BANYU PHARMA CO LTD: (D-Tyr)-Phe-Leu-Pro-(D-Ser)-Gln-Phe-(D-Ala)-Tic-Ser was used as a positive control (SEQ ID NO: 102).
The activation of the compound on Tango™ CMKLR1-bla U2OS cells (Invitrogen Cat. nos. K1551) was tested.
The activation of each compound in the above experiments on Tango™ CMKLR1-bla U2OS cells was determined as follows:
Day 1: Cell Seeding on Plate
2. The medium was removed, and the cells were washed with DPBS twice, followed by addition of 3 mL of 0.05% trypsin, and placed in a 37° C., 5% CO2 incubator (Thermo Fisher, Waltham, Massachusetts, USA) for 3-5 minutes. After the cells were rounded, 3-5 mL of medium (medium formula: DMEM 90%, Dialyzed FBS 10%, NEAA 0.1 mM, HEPES (pH 7.3) 25 mM, Penicillin 100 U/mL, Streptomycin 100 μg/mL) was added to terminate digestion.
2. The digested cells were transferred to a 15 mL centrifuge tube (430790, Corning), centrifuged at 1000 rpm for 5 minutes (5810R, Eppendorf, Hamburg, Germany), and the supernatant was discarded.
3. 7 mL of medium (DMEM+10% FBS) was added, blowed into a single cell suspension, counted by a cell counter, and adjusted the cell suspension to a desired cell density of 250,000/mL with the medium.
4. The cell suspension was seeded into a 384-well cell plate (Corning 3712) in 40 μL/well to make the number of cells 10000 cells/well, and 32 μL of medium was added to the blank control.
5. The incubation was performed overnight at 37° C. under 5% CO2.
Day 2: Dosing and Testing
1. Preparation of 200× Compound Plate
1.1 The test compound was formulated into a 10 mM working solution in DMSO.
1.2 45 μL of 10 mM test compound was added to the 2nd column of rows A to P in the Echo-384 well plate. The compound was subjected to a 3-fold dilution with Precision (30 μL of DMSO was added to the 3rd to 11th columns; 15 μL of the drug solution was pipetted from the 2nd column to the 3rd column, blown and evenly mixed; then 15 μL of the drug solution was pipetted from the 3rd column to the 4th column, blown and evenly mixed; the drugs was subjected to a 3-fold dilution to obtain 10 concentrations in total). The 1st and 12th columns of the Echo-384 well plate were supplemented with 30 μL of DMSO.
2. Preparation of Intermediate Plate
500 nL, i.e., 0.5 μL of the diluted compound (or DMSO) in the 200× compound plate was transferred into the corresponding position of V-bottom 384-well plate with Echo. 20 μL of medium was added to each well, centrifuged, shaken and evenly mixed. The concentration of the drugs in each well of the 2nd to 11th column of intermediate plate (i.e., 5× compound plate) were shown in following Table 4.
3.1 The cell plate was taken out from the incubator and observed under a microscope. The diluted compound or DMSO in the intermediate plate was added to the cell plate in 10 μL/well in the corresponding cell plate, and 40 μL of medium was pre-filled in each well.
3.2 The cells were incubated at 37° C. under 5% CO2 for 4 hours.
4.1 1 mM CCF4-AM, solution B, Solution C, and Solution D were used to prepare an appropriate amount of 6× detection solution. The LiveBLAzer™-FRET B/G Loading kit (K1095, Thermo Fisher, Waltham, Massachusetts, USA) kit containing CCF-4AM and solutionB, solutionC, and solutionD was also purchased from invitrogen (K1157, Thermo Fisher, Waltham, Massachusetts, USA).
4.2 The cells were observed under a microscope and the cell plate was equilibrated to room temperature.
4.3 6 μL of CCF-4AM dissolved solution A, 60 μL of solution B, 904 μL of solution C and 30 μL of solution D were pipetted in an EP tube, blown, and evenly mixed to obtain a 6× detection solution. The prepared 6× detection solution was pipetted to a 384-well plate in 10 μL/well.

Setting [1] is: determination by the method of Effect Embodiment 1, read-out: EC50.

For orientation: EC50 means the concentration giving half of the maximal effect. In turn, `CC(C)C[C@H](NC(=O)[C@H](Cc1ccccc1)NC(=O)[C@H](N)Cc1ccc(O)cc1)C(=O)N1CCC[C@H]1C(=O)N[C@H](CO)C(=O)N[C@@H](CCC(N)=O)C(=O)N[C@@H](Cc1cccc2ccccc12)C(=O)N[C@H](C)C(=O)N1Cc2ccccc2C[C@H]1C(=O)N[C@@H](CO)C(=O)O` [YW-117, (D-Tyr)-Phe-Leu-Pro-(D-Ser)-Gln-1Nal-(D-Ala)-Tic-Ser-OH] (H-[dY]FLP[dS]Q[1Nal][dA][Tic]S-OH) returned an EC50 of 3.9 nM.

For the molecule `CC(C)C[C@H](NC(=O)[C@H](Cc1ccccc1)NC(=O)[C@H](N)Cc1ccc(O)cc1)C(=O)N1CCC[C@H]1C(=O)N[C@H](CO)C(=O)N[C@@H](CCC(N)=O)C(=O)N[C@@H](Cc1ccc2ccccc2c1)C(=O)N[C@H](C)C(=O)N1Cc2ccccc2C[C@H]1C(=O)N[C@@H](CO)C(=O)O` [YW-118, (D-Tyr)-Phe-Leu-Pro-(D-Ser)-Gln-2Nal-(D-Ala)-Tic-Ser-OH] (H-[dY]FLP[dS]Q[2Nal][dA][Tic]S-OH), the 50% effective concentration (EC50) was 6.9 nM.

Consider `CC(C)C[C@H](NC(=O)[C@H](Cc1ccccc1)NC(=O)[C@H](N)Cc1ccc(O)cc1)C(=O)N1CCC[C@H]1C(=O)N[C@H](CO)C(=O)N[C@@H](CCC(N)=O)C(=O)N[C@@H](Cc1ccc(C(=O)c2ccccc2)cc1)C(=O)N[C@H](C)C(=O)N1Cc2ccccc2C[C@H]1C(=O)N[C@@H](CO)C(=O)O` [YW-119, (D-Tyr)-Phe-Leu-Pro-(D-Ser)-Gln-Bpa-(D-Ala)-Tic-Ser-OH] (H-[dY]FLP[dS]Q[Bpa][dA][Tic]S-OH), for which the EC50 under setting [1] came to 9.9 nM.

In the case of `CC(C)C[C@@H](C(=O)N1CSC[C@H]1C(=O)N[C@H](CO)C(=O)N[C@@H](CCC(N)=O)C(=O)N[C@@H](Cc1ccccc1)C(=O)N[C@H](C)C(=O)N1Cc2ccccc2C[C@H]1C(=O)N[C@@H](CO)C(=O)O)N(C)C(=O)[C@H](Cc1ccccc1)NC(=O)[C@H](N)Cc1ccc(O)cc1` [YW-121, (D-Tyr)-Phe-(NMe-Leu)-Thz-(D-Ser)-Gln-Phe-(D-Ala)-Tic-Ser-OH] (H-[dY]F[NMeL][Thz][dS]QF[dA][Tic]S-OH), the EC50 under setting [1] came out at 0.7 nM.

Regarding `CN[C@H](Cc1ccc(O)cc1)C(=O)N[C@@H](Cc1ccccc1)C(=O)N(C)[C@@H](CC(C)C)C(=O)N1CSC[C@H]1C(=O)N[C@H](CO)C(=O)N[C@@H](CCC(N)=O)C(=O)N[C@@H](Cc1ccccc1)C(=O)N[C@H](C)C(=O)N1Cc2ccccc2C[C@H]1C(=O)N(C)[C@@H](CO)C(=O)O` [YW-124, (NMe-D-Tyr)-Phe-(NMe-Leu)-Thz-(D-Ser)-Gln-Phe-(D-Ala)-Tic-(NMe-Ser)-OH] (H-[dNMeY]F[NMeL][Thz][dS]QF[dA][Tic][NMeS]-OH), the EC50 under setting [1] worked out at 1.3 nM.

For the molecule `CC(C)C[C@H](NC(=O)[C@H](Cc1ccccc1)NC(=O)[C@@H](Cc1ccc(O)cc1)NC(=O)c1cccc(O)c1O)C(=O)N1CCC[C@H]1C(=O)N[C@H](CO)C(=O)N[C@@H](CCC(N)=O)C(=O)N[C@@H](Cc1ccccc1)C(=O)N[C@H](C)C(=O)N1Cc2ccccc2C[C@H]1C(=O)N[C@@H](CO)C(=O)O` [YW-127, 2,3-dihydroxybenzoyl-(D-Tyr)-Phe-Leu-Pro-(D-Ser)-Gln-Phe-(D-Ala)-Tic-Ser-OH] ({Benzoyl(2,3-diOH)}-[dY]FLP[dS]QF[dA][Tic]S-OH), the EC50 under setting [1] is 10 nM.

As for `CC(C)C[C@H](NC(=O)[C@H](Cc1ccccc1)NC(=O)[C@@H](Cc1ccc(O)cc1)NC(=O)c1c(O)cccc1O)C(=O)N1CCC[C@H]1C(=O)N[C@H](CO)C(=O)N[C@@H](CCC(N)=O)C(=O)N[C@@H](Cc1ccccc1)C(=O)N[C@H](C)C(=O)N1Cc2ccccc2C[C@H]1C(=O)N[C@@H](CO)C(=O)O` [YW-128, 2,6-dihydroxybenzoyl-(D-Tyr)-Phe-Leu-Pro-(D-Ser)-Gln-Phe-(D-Ala)-Tic-Ser-OH] (X8-[dY]FLP[dS]QF[dA][Tic]S-OH), the EC50 under setting [1] was 20 nM.

Take `CC(C)C[C@H](NC(=O)[C@H](Cc1ccccc1)NC(=O)[C@@H](Cc1ccc(O)cc1)NC(=O)c1ccc(O)c(O)c1O)C(=O)N1CCC[C@H]1C(=O)N[C@H](CO)C(=O)N[C@@H](CCC(N)=O)C(=O)N[C@@H](Cc1ccccc1)C(=O)N[C@H](C)C(=O)N1Cc2ccccc2C[C@H]1C(=O)N[C@@H](CO)C(=O)O` [YW-129, 2,3,4-Trihydroxybenzoyl-(D-Tyr)-Phe-Leu-Pro-(D-Ser)-Gln-Phe-(D-Ala)-Tic-Ser-OH] (X9-[dY]FLP[dS]QF[dA][Tic]S-OH): the concentration for a half-maximal effect (EC50) under setting [1] was determined as 9.1 nM.

In the case of `CC(C)C[C@H](NC(=O)[C@H](Cc1ccccc1)NC(=O)[C@@H](Cc1ccc(O)cc1)NC(=O)Cc1cc(O)cc(O)c1)C(=O)N1CCC[C@H]1C(=O)N[C@H](CO)C(=O)N[C@@H](CCC(N)=O)C(=O)N[C@@H](Cc1ccccc1)C(=O)N[C@H](C)C(=O)N1Cc2ccccc2C[C@H]1C(=O)N[C@@H](CO)C(=O)O` [YW-131, 3,5-Dihydroxyphenylacetyl-(D-Tyr)-Phe-Leu-Pro-(D-Ser)-Gln-Phe-(D-Ala)-Tic-Ser] (X12-[dY]FLP[dS]QF[dA][Tic]S-OH), the EC50 under setting [1] came to 2.9 nM.

For the molecule `CN[C@H](Cc1ccc(O)cc1)C(=O)N[C@@H](Cc1ccccc1)C(=O)N(C)[C@@H](CC(C)C)C(=O)N1CSC[C@H]1C(=O)N[C@H](CO)C(=O)N[C@@H](CCC(N)=O)C(=O)N[C@@H](Cc1cccc2ccccc12)C(=O)N[C@H](C)C(=O)N1Cc2ccccc2C[C@H]1C(=O)N(C)[C@@H](CO)C(=O)O` [YW-142, (D-NMe-Tyr)-Phe-(NMe-Leu)-Thz-(D-Ser)-Gln-1Nal-(D-Ala)-Tic-(NMe-Ser)-OH] (H-[dNMeY]F[NMeL][Thz][dS]Q[1Nal][dA][Tic][NMeS]-OH; N-terminus assumed), the concentration for a half-maximal effect (EC50) under setting [1] came out at 0.9 nM.

Consider `CN[C@H](Cc1ccc(O)cc1)C(=O)N[C@@H](Cc1ccccc1)C(=O)N(C)[C@@H](CC(C)C)C(=O)N1CCC[C@H]1C(=O)N[C@H](CO)C(=O)N[C@@H](CCC(N)=O)C(=O)N[C@@H](Cc1ccc2ccccc2c1)C(=O)N[C@H](C)C(=O)N1Cc2ccccc2C[C@H]1C(=O)N(C)[C@@H](CO)C(=O)O` [YW-146, (D-NMe-Tyr)-Phe-(NMe-Leu)-Pro-(D-Ser)-Gln-2Nal-(D-Ala)-Tic-(NMe-Ser)-OH] (H-[dNMeY]F[NMeL]P[dS]Q[2Nal][dA][Tic][NMeS]-OH), for which the EC50 under setting [1] turned out to be 1.4 nM.

For the molecule `CC(C)C[C@H](NC(=O)[C@H](Cc1ccccc1)NC(=O)[C@H](N)Cc1ccc(O)cc1)C(=O)N1CCC[C@H]1C(=O)N[C@H](CO)C(=O)N[C@@H](CCC(N)=O)C(=O)N[C@H](CO)C(=O)N[C@H](C)C(=O)N1Cc2ccccc2CN1C(=O)N[C@@H](CO)C(=O)O` [YW-147, (D-Tyr)-Phe-Leu-Pro-(D-Ser)-Gln-(D-Ser)-(D-Ala)-azaTic-Ser-OH] (H-[dY]FLP[dS]Q[dS][dA][X3]S-OH; N-terminus assumed), the 50% effective concentration (EC50) entry (Tango CMKLR1-bla U2OS cells, 4 hours incubation, four-parameter fit of activation rate) is on record as “no fit” and the concentration for a half-maximal effect (EC50) under setting [1] was more than 50000 nM.
